Experiments:
Assay type in all cases: in vivo
serotonin = assay: rat dermal vascular permeability test (mediator release model), serotonin challenge; conditions: 100 mg/kg
histamine [1] = assay: rat dermal vascular permeability test (mediator release model), histamine challenge; conditions: 100 mg/kg, histamine 20 ug/ml intradermal
Method: The furanone compounds listed in Tables 1A, 1B and 2 were used for anti-allergy treatment in the rat active anaphylaxis model and/or the rat dermal vascular permeability test (mediator release model). The results are given as the percent inhibition from the control.
In the rat dermal vascular permeability test, groups of ten male rats are intraperitoneally or perorally administered either the test compound, at a dosage of 100 mg/kg of rat weight as a 0.85% solution in saline, or the positive reference standard cyproheptadine (1 mg/kg) one hour prior to an intravenous injection of 1 ml of a 0.5% solution of Evan's blue dye into naive animals. Ten minutes later the animals are challenged by intradermally injecting 0.1 ml of a solution of either serotonin (1 ug/ml), histamine (20 ug/ml) or bradykinin (10 ug/ml) into separate sites on the back. Five minutes following challenge the animals are killed, the skin retracted, and the mean diameter of the blue wheal and flare reactions are determined. The percent inhibition of the wheal reaction is calculated as the difference in diameter between the saline control and drug treated groups divided by the control diameter times 100. Statistical analysis of the data is done using the poolt program.

bradykinin = assay: rat dermal vascular permeability test (mediator release model), bradykinin challenge; conditions: 100 mg/kg
edema = assay: rat active anaphylaxis model (paw edema after bovine serum albumin challenge); conditions: 100 mg/kg intraperitoneally; for Active Anaphylaxis % Inhibition: 1 h before challenge, paw volume 90 min post challenge
Method: In the rat active anaphylaxis model, groups consisting of 15-20 male rats are intraperitoneally sensitized on day zero with 500 ug of bovine serum albumin-absorbed alum admixed with 2×10^10 killed Bordatella pertussis vaccine organisms. […] The paw volume is measured using a mercury plethysmometer prior to drug administration and 90 minutes post antigenic challenge. The percent inhibition of edema is calculated as the difference in volume between the control and drug treated groups divided by the control volume times 100. The positive control drug, theophylline (90 mg/kg, po) is included in each assay. Statistical analysis of the data is done using the poolt program.

histamine [2] = assay: rat dermal vascular permeability test (mediator release model), histamine challenge; conditions: topical, 100 mg/kg
[3] = peroral, serotonin 1 ug/ml intradermal
[4] = intraperitoneal administration, serotonin 1 ug/ml intradermal
[5] = intraperitoneal administration, bradykinin 10 ug/ml intradermal

SMILES	% Inhibition of Mediator Release, Serotonin (serotonin; [3]) [%]	% Inhibition of Mediator Release, Histamine (histamine [1]; peroral) [%]	% Inhibition of Mediator Release, Bradykinin (bradykinin; topical) [%]	Active Anaphylaxis % Inhibition (edema) [%]	further results
CCOC(=O)C1=C(N[C@@H]2C[C@H]2c2ccccc2)OCC1=O (relative stereo)	57	35	59	–	–
CCOC(=O)C1=C(N[C@@H]2C[C@H]2c2ccc(Cl)cc2)OCC1=O (relative stereo)	51	60	76	–	–
Cc1ccc([C@@H]2C[C@H]2NC2=C(C(=O)O)C(=O)CO2)cc1 (relative stereo)	100	100	100	45	–
O=C(O)C1=C(N[C@@H]2C[C@H]2c2ccc(Cl)cc2)OCC1=O (relative stereo)	54	56	71	6	–
O=C(O)C1=C(N[C@@H]2C[C@H]2c2ccccc2)OCC1=O (relative stereo)	–	–	–	22	–
CCOC(=O)C1=C(O)COC1=Nc1ccc(Br)cc1 [K C6 H4 Br--4 C2 H5]	–	–	–	38	% Inhibition of Mediator Release, Serotonin (serotonin; [4]): 46%; % Inhibition of Mediator Release, Histamine (histamine [1]; intraperitoneal administration): 65%; % Inhibition of Mediator Release, Bradykinin (bradykinin; [5]): 69%
CCOC(=O)C1=C(O)COC1=Nc1cccc(C)c1 [K C6 H4 CH3 --3 C2 H5]	–	–	–	–	% Inhibition of Mediator Release, Serotonin (serotonin; [4]): 75%; % Inhibition of Mediator Release, Histamine (histamine [1]; intraperitoneal administration): 71%; % Inhibition of Mediator Release, Bradykinin (bradykinin; [5]): 70%
CCOC(=O)C1=C(O)COC1=Nc1ccc(C(C)=O)cc1 [K C6 H4 COCH3 --4 C2 H5]	–	–	–	56	% Inhibition of Mediator Release, Serotonin (serotonin; [4]): 79%; % Inhibition of Mediator Release, Histamine (histamine [1]; intraperitoneal administration): 88%; % Inhibition of Mediator Release, Bradykinin (bradykinin; [5]): 86%
CCOC(=O)C1=C(O)COC1=Nc1cccc([N+](=O)[O-])c1 [K C6 H4 NO2 --3 C2 H5]	–	–	–	37	% Inhibition of Mediator Release, Serotonin (serotonin; [4]): 45%; % Inhibition of Mediator Release, Histamine (histamine [1]; intraperitoneal administration): 49%; % Inhibition of Mediator Release, Bradykinin (bradykinin; [5]): 67%
CCOC(=O)C1=C(O)COC1=Nc1ccccc1OC [K C6 H4 OCH3 --2 C2 H5]	–	–	–	58	–
CCOC(=O)C1=C(O)COC1=Nc1ccccc1 [K C6 H5 C2 H5, Potassium 2,5-dihydro-3-ethoxycarbonyl-2-(phenylimino)-4-furanyloxide]	–	–	–	49	% Inhibition of Mediator Release, Serotonin (serotonin; [4]): 42%; % Inhibition of Mediator Release, Histamine (histamine [1]; intraperitoneal administration): 31%; % Inhibition of Mediator Release, Bradykinin (bradykinin; [5]): 51%
COc1ccc(NC(=O)C2=C(Nc3ccc(OC)cc3)OCC2=O)cc1 [NH6 H4 OCH3 4 H H C6 H4 OCH3 4]	–	–	39	–	% Inhibition of Mediator Release, Serotonin (serotonin; topical): 13%; % Inhibition of Mediator Release, Histamine (histamine [2]): 8%
Cc1ccccc1NC(=O)C1=C(Nc2ccccc2C)OCC1=O [NHC6 H4 CH3 2 H H C6 H4 CH3 2]	9	0	7	–	–
O=C1COC(Nc2ccc(Cl)cc2)=C1C(=O)Nc1ccc(Cl)cc1 [NHC6 H4 Cl4 H H C6 H4 Cl4]	14	15	44	–	–
COc1ccccc1NC(=O)C1=C(Nc2ccccc2OC)OCC1=O [NHC6 H4 OCH3 2 H H C6 H4 OCH3 2]	18	1	39	–	–
O=C1COC(Nc2ccccc2)=C1C(=O)Nc1ccccc1 [NHC6 H5 H H C6 H5, 4,5-Dihydro-4-oxo-N-phenyl-2-(phenylamino)-3-furancarboxamide]	–	–	–	46	–
CCOC(=O)C1=C(Nc2ccccc2)OC(C)(C)C1=O [OC2 H5 CH3 CH3 C6 H5, ethyl 4,5-dihydro-5,5-dimethyl-4-oxo-2-(phenylamino)-3-furancarboxylate]	–	–	–	16	–
CCOC(=O)C1=C(Nc2cccc(C(F)(F)F)c2)OCC1=O [OC2 H5 H H C6 H4 CF3 --3]	9.7	4.1	40	–	–
CCOC(=O)C1=C(Nc2ccc(C(=O)OCC)cc2)OCC1=O [OC2 H5 H H C6 H4 CO2 C2 H5 --4, ethyl 2-[[4-(ethoxycarbonyl)phenyl]-amino]-4,5-dihydro-4-oxo-3-furancarboxylate]	18	21	21	–	–
CCOC(=O)C1=C(Nc2ccc(Cl)cc2)OCC1=O [OC2 H5 H H C6 H4 Cl--4]	6.6	3.3	9.5	–	–
CCOC(=O)C1=C(NC)OCC1=O [OC2 H5 H H CH3]	–	–	–	–	% Inhibition of Mediator Release, Serotonin (serotonin; [4]): 38%; % Inhibition of Mediator Release, Histamine (histamine [1]; intraperitoneal administration): 50%; % Inhibition of Mediator Release, Bradykinin (bradykinin; [5]): 25%
CC1(C)OC(Nc2ccccc2)=C(C(=O)O)C1=O [OH CH3 CH3 C6 H5]	–	–	–	44	–
CC1OC(Nc2ccccc2)=C(C(=O)O)C1=O (stereo not drawn) [OH H CH3 C6 H5]	–	–	–	60	% Inhibition of Mediator Release, Serotonin (serotonin; [4]): 37%; % Inhibition of Mediator Release, Histamine (histamine [1]; intraperitoneal administration): 40%; % Inhibition of Mediator Release, Bradykinin (bradykinin; [5]): 46%
O=C(O)C1=C(Nc2ccc(Br)cc2)OCC1=O [OH H H C6 H4 Br--4]	39	45	68	27	–
O=C(O)C1=C(Nc2cccc(C(F)(F)F)c2)OCC1=O [OH H H C6 H4 CF3 --3]	40	26	54	45	–
O=C(O)C1=C(Nc2ccc(C(=O)O)cc2)OCC1=O [OH H H C6 H4 CO2 H--4, 2-[(4-Carboxyphenyl)amino]-4,5-dihydro-4-oxo-3-furancarboxylic Acid]	63	64	64	52	–
O=C(O)C1=C(Nc2cccc([N+](=O)[O-])c2)OCC1=O [OH H H C6 H4 NO2 --3]	18	16	48	–	Active Anaphylaxis % Inhibition (footnote 1: edema increased) (edema; edema increased): 39%
COc1ccccc1NC1=C(C(=O)O)C(=O)CO1 [OH H H C6 H4 OCH3 --2]	30	27	38	45	–
O=C([O-])C1=C(Nc2ccccc2)OCC1=O.[Na+] [O^- Na^+ H H C6 H5, 4,5-dihydro-4-oxo-2-phenylamino-3-furancarboxylic acid sodium salt]	–	–	–	17	–

From patent publication US4845122A, “Anti-allergy treatment using 2-(substituted amino)-4,5-dihydro-4-oxo-3-furancarboxylic acids and derivatives thereof” (priority 1986, dated 1989)
